Legend:
[1] = molecular target: T1, human GCN2 full-length protein (Homo sapiens, UniProt Q9P2K8); assay: GCN2 enzyme inhibition assay (LanthaScreen TR-FRET); assay type: biochemical; conditions: GCN2 enzyme inhibitory activity at compound concentration of 3 μM; Table 3-1; read-out: inhibitory rate
T1 construct: purchased Carna Biosciences, Inc
How it was run: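 Full-length human GCN2 was preincubated with compound for 1 hr at room temperature, then reacted for 1 hr with substrate and ATP added from a 570 μM ATP / 390 nM substrate solution (stock concentrations). Phosphorylation was detected by TR-FRET with a terbium-labelled anti-eIF2alpha antibody after 1 hr, with enzyme-free wells as control.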

[2] = system: ATF4 expression in human acute lymphoblastic leukemia cell line CCRF-CEM; assay: In vitro ATF4 expression suppression assay (Western blot) in the presence of L-asparaginase; assay type: cell-based; conditions: compound concentration 400 nM, L-asparaginase 0.1 U/mL, 4 hr
Experimental: A cell suspension (40 μL) (500000 cells/well) of human acute lymphoblastic leukemia cell line CCRF-CEM obtained from ATCC (American Type Culture Collection) was seeded on a 12 well plate using RPMI1640 medium. The seeded cells were incubated (37° C., 5% CO2) overnight to 24 hr at the longest. L-asparaginase (Sigma-Aldrich Co. LLC.) was dissolved in PBS and treated in each well to a final concentration of 0.1 U/mL. Furthermore, each test compound was dissolved (10 mM) in DMSO, delivered to wells by using TECAN HP D300 (TECAN), and the plate was incubated for 4 hr (37° C., 5% CO2). A well without addition of compound was treated similarly as a control group. […]
Protein extract solution was subjected to protein quantification with BCA Protein Assay Kit (Thermo Scientific), electrophoresed on 7.5-15% SDS-PAGE gel (DRC), and protein in the gel was transferred to PVDF membrane. […] Thereafter, chemiluminescence was performed using ImmunoStar LD (Wako Pure Chemical Industries, Ltd.), and luminescence intensity was measured by LAS-3000 image analyzer (Fuji Film Co., Ltd.). Furthermore, the expression level of ATF4 was digitized by quantifying the luminescence intensity using Multi Gauge Ver. […]

[3] = system: human acute lymphoblastic leukemia cells CCRF-CEM; assay: In vivo tumor proliferation inhibitory assay with combined use of asparaginase (CCRF-CEM xenograft); conditions: CCRF-CEM xenograft in SCID mouse; for in vivo tumor proliferation inhibitory rate (%), GCN2 inhibitor: GCN2 inhibitor alone
Excerpt: One million human acute lymphoblastic leukemia cells CCRF-CEM obtained from ATCC (American Type Culture Collection) were suspended in Matrigel solution (Corning) and implanted subcutaneously into 6-week-old female SCID mouse (CLEA Japan, Inc.) by injection. The mice in which the tumor engrafted to a size of about 200 mm^3 tumor volume after transplantation were selected and 5 mice per group were used for the experiment. A 0.5% methylcellulose suspension of the compound was orally administered twice per day for 9 days. Each compound was administered twice per day and the dose was 10 mg/kg for Example 14 and Example 7, and 6 mg/kg for Example 4. L-asparaginase (Kyowa Hakko Kogyo Co., Ltd.) was subcutaneously administered once per day at a dose of 1000 U/kg. Tumor diameter was measured one day before start of the administration and day 9 of the administration, and the tumor volume was calculated by the formula 1. tumor volume=major axis×minor axis×minor axis×(½) Formula 1
Tumor proliferation inhibitory rate (%) was calculated by the formula 2. tumor proliferation inhibitory rate (%)=(1−(T9−T0)/(C9−C0))×100 Formula 2 T9: average tumor volume of test drug administration group on day 9 of administration, T0: average tumor volume of test drug administration group one day before start of administration, C9: average tumor volume of control group on day 9 of administration, C0: average tumor volume of control group one day before start of administration

T1 sequence (Q9P2K8 whole entry): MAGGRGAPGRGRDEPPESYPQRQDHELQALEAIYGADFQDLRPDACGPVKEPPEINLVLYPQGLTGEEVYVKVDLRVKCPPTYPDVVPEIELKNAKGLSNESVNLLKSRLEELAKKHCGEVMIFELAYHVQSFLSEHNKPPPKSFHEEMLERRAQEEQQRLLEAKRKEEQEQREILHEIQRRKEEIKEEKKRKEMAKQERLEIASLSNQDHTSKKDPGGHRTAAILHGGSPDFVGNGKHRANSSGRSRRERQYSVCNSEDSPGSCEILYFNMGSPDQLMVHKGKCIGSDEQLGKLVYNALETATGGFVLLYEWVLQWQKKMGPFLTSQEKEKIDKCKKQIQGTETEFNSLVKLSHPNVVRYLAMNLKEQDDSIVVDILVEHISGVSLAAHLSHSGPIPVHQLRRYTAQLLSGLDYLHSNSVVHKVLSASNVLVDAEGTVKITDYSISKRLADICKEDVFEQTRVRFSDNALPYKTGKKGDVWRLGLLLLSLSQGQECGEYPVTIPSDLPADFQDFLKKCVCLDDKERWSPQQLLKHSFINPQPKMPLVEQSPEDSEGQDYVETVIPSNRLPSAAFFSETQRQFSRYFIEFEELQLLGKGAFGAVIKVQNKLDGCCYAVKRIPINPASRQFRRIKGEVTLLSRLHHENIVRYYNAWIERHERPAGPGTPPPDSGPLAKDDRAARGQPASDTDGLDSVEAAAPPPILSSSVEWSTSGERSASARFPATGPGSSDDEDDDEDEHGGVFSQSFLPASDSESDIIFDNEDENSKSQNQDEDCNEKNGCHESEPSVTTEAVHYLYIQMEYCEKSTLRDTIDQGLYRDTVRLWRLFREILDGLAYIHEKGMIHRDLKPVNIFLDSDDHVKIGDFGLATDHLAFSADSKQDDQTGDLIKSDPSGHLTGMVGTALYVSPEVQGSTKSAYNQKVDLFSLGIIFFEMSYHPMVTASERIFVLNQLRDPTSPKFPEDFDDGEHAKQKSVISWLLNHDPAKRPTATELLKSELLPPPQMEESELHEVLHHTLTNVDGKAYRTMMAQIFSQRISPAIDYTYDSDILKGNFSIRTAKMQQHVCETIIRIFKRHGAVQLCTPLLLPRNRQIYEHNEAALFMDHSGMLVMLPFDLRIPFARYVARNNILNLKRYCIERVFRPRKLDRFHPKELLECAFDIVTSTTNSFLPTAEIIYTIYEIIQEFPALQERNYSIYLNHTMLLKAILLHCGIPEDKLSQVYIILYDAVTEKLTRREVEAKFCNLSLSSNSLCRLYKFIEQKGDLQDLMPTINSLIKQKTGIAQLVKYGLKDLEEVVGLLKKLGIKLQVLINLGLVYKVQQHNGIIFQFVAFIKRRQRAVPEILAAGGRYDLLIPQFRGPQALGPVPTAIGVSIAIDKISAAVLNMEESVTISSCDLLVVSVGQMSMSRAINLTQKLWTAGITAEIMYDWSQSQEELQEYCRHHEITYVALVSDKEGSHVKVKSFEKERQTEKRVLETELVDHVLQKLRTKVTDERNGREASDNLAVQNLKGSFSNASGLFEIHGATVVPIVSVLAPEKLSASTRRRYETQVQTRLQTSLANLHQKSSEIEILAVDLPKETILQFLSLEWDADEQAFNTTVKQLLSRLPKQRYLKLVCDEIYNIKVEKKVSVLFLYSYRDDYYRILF

## COc1ncc(Cl)cc1S(=O)(=O)Nc1ccc(F)c(C#Cc2cnc(N)nc2)c1F [Example 7, N-(3-((2-aminopyrimidin-5-yl)ethynyl)-2,4-difluorophenyl)-5-chloro-2-methoxypyridine-3-sulfonamide]
[1]
  inhibition at 3 µM: 100%
[2]
  in vitro ATF4 expression inhibition ratio (%): 97%
[3]; 10 mg/kg oral twice per day for 9 days
  in vivo tumor proliferation inhibitory rate (%), GCN2 inhibitor: 7%
[3]; compound 10 mg/kg oral twice per day for 9 days combined with L-asparaginase 1000 U/kg s.c. once per day
  in vivo tumor proliferation inhibitory rate (%), combined use: 65%

## Nc1ncc(C#Cc2c(F)ccc(NS(=O)(=O)c3cc(Cl)cc(CO)c3Cl)c2F)cn1 [Example 4, N-(3-((2-aminopyrimidin-5-yl)ethynyl)-2,4-difluorophenyl)-2,5-dichloro-3-(hydroxymethyl)benzenesulfonamide]
[1]
  inhibition at 3 µM: 100%
[2]
  in vitro ATF4 expression inhibition ratio (%): 97%
[3]; 6 mg/kg oral twice per day for 9 days
  in vivo tumor proliferation inhibitory rate (%), GCN2 inhibitor: 2%
[3]; compound 6 mg/kg oral twice per day for 9 days combined with L-asparaginase 1000 U/kg s.c. once per day
  in vivo tumor proliferation inhibitory rate (%), combined use: 60%
